How the values were obtained:
[1] = test system: Camellia oleifera 'Huaxin' 2n pollen; assay: 2n pollen yield (occurrence frequency) after precursor application and 45° C. high-temperature treatment of flower branches; type: in vivo
Experimental: (§1) After the high-temperature treatment was released, Camellia oleifera grew naturally until anthers were pollinated. Pollen of each treatment was collected, and a temporary smear of the pollen was made by an aceto-carmine staining method and then photographed by an OlympusDP70 optical microscope; and a diameter of pollen in a temporary smear of each treatment was measured by Image J software, and a yield and a fertility rate of 2n pollen were counted.
(§2) Pollen stained red by aceto-carmine was counted as fertile pollen, and pollen not stained red by aceto-carmine was counted as infertile pollen (as shown in FIG. 3).
(§3) An occurrence frequency of 2n pollen was a ratio of an amount of 2n pollen to a total amount of pollen observed, and a fertility rate of 2n pollen was a ratio of an amount of fertile 2n pollen to a total amount of 2n pollen observed. […] When no high-temperature treatment is applied, an occurrence frequency of 2n pollen is 0.9%, and a fertility rate is 100%. • 2. […] Treatment conditions for 2n pollen in Camellia oleifera in the present disclosure: a leptotene stage to a pachytene stage of pollen mother cells, a style length: less than 2.57 mm, an induction temperature: 43° C. to 49° C., and an induction time: 3 h to 6 h.
(§4) Flower branches with a style length developing to 1.97 mm<L≤2.27 mm and pollen mother cells at a leptotene stage to a pachytene stage were selected as target flower branches, and DMTU solutions with different concentrations were applied to the target flower branches, respectively; and a flower branch not treated with a DMTU solution was adopted as a control.
(§5) The concentrations of the DMTU solutions were 1 mg/L, 5 mg/L, 10 mg/L, 15 mg/L, 20 mg/L, and 25 mg/L, respectively. Preparation method of a DMTU solution: DMTU was first dissolved with an appropriate amount of alcohol, and then water was added to a required concentration.
(§6) The above DMTU solutions with different concentrations each were sprayed on a flower branch, where a DMTU solution was evenly sprayed on a flower branch by a sprayer until there were condensed water droplets flowing down from leaves or flower buds; and each treatment was numbered and recorded (as shown in Table 3).
(§7) After each DMTU solution was applied, in order to avoid rapid evaporation of a solution on a leaf surface due to a high-temperature treatment, the whole flower branch was wrapped with a plastic film, and then the non-ex vivo tree branch bud heating device in the authorized patent (patent ZL200610113448.X) was immediately used to apply a 45° C. high-temperature treatment to each target flower branch for 4 h, namely, a high-temperature doubling treatment. A doubling treatment method was the same as the doubling treatment method in step 1.2 of Example 1.
(§8) After a high-temperature treatment was conducted for 4 h, a heating bag and a plastic film were removed to release the high-temperature treatment, and Camellia oleifera was allowed to grow naturally until anthers were pollinated. Pollen of each treatment was collected, and a temporary smear of the pollen was made by an aceto-carmine staining method and then photographed by an Olympus DP70 optical microscope; and a diameter of pollen was measured by Image J software, and an occurrence frequency and a fertility rate of 2n pollen were counted.
(§9) The above reagents were applied through spraying on a flower branch and injection into a flower bud. The spraying on a flower branch was as follows: a precursor solution was evenly sprayed on the flower branch by a sprayer until there were condensed water droplets flowing down from leaves or flower buds. The injection into a flower bud was as follows: a precursor solution was injected into the flower bud by a 5 mL syringe (0.5×20 mm injection needle) through a scale gap at a top of the flower bud until there were water droplets overflowing a surface of the flower bud. […]

[2] = test system: Camellia oleifera 'Huaxin' 2n pollen; assay: 2n pollen fertility rate (aceto-carmine staining) after precursor application and 45° C. high-temperature treatment of flower branches; type: in vivo; details: for 2n pollen fertility rate (%): 45° C.; for k1 (K1/4, mean 2n pollen fertility rate at level 1): level 1: DMTU 5 mg/L, mannitol 0.1 g/L, ascorbic acid 0.5 mg/L, brassinolide 2.0 mg/L, sucrose 5 g/L; for k2 (K2/4, mean 2n pollen fertility rate at level 2): level 2: DMTU 10 mg/L, ascorbic acid 1.0 mg/L, sucrose 10 g/L; for k3 (K3/4, mean 2n pollen fertility rate at level 3): level 3: DMTU 15 mg/L, mannitol 1.0 g/L, brassinolide 6.0 mg/L, sucrose 15 g/L; for k4 (K4/4, mean 2n pollen fertility rate at level 4): level 4: DMTU 20 mg/L, mannitol 2.0 g/L, ascorbic acid 2.0 mg/L, brassinolide 8.0 mg/L, sucrose 30 g/L
Experimental: as §1, §2, §3, §4, §5, §6, §7, §8, §9

[3] = DMTU solution 1 mg/L sprayed on flower branch, 4 h
[4] = DMTU solution 5 mg/L sprayed on flower branch, 4 h
[5] = DMTU solution 10 mg/L sprayed on flower branch, 4 h (Example 2A)
[6] = DMTU solution 15 mg/L sprayed on flower branch, 4 h
[7] = DMTU solution 20 mg/L sprayed on flower branch, 4 h
[8] = DMTU solution 25 mg/L sprayed on flower branch, 4 h
[9] = Injection into a flower bud, DMTU 10 mg/L, mannitol 0.5 g/L, ascorbic acid 1.5 mg/L, brassinolide 4.0 mg/L, 4 h (Example 2B)
[10] = Spraying on a flower branch, DMTU 10 mg/L, mannitol 0.5 g/L, ascorbic acid 1.5 mg/L, brassinolide 4.0 mg/L, 4 h (Example 2B)
[11] = mannitol 0.5 g/L, brassinolide 4.0 mg/L, in %

Compound | 2n pollen yield (%) [1, 9] | 2n pollen yield (%) [1, 10] | 2n pollen fertility rate (%) [2, 9] | 2n pollen fertility rate (%) [2, 10] | k1 (K1/4, mean 2n pollen fertility rate at level 1) ([2]; in %) | k2 (K2/4, mean 2n pollen fertility rate at level 2) [2, 11] | k3 (K3/4, mean 2n pollen fertility rate at level 3) ([2]; ascorbic acid 1.5 mg/L, in %) | k4 (K4/4, mean 2n pollen fertility rate at level 4) ([2]; in %) | also measured
CNC(=S)NC [DMTU, N,N′-Dimethylthiourea] | 12.17% | 11.52% | 90.14% | 86.97% | 78.23 | 87.54 | 81.12 | 78.28 | 2n pollen yield (%) [1, 3]: 9.17%; 2n pollen yield (%) [1, 4]: 9.81%; 2n pollen yield (%) [1, 5]: 11.52%; 2n pollen yield (%) [1, 6]: 10.83%; 2n pollen yield (%) [1, 7]: 10.15%; 2n pollen yield (%) [1, 8]: 9.05%; 2n pollen yields and fertility rates compared with the control ([2]; 5 mg/L, 10 mg/L, 15 mg/L and 20 mg/L DMTU solutions sprayed on flower branches): significantly improved; 2n pollen fertility rate (%) [2, 3]: 64.25%; 2n pollen fertility rate (%) [2, 4]: 75.94%; 2n pollen fertility rate (%) [2, 5]: 86.23%; 2n pollen fertility rate (%) [2, 6]: 82.46%; 2n pollen fertility rate (%) [2, 7]: 78.61%; 2n pollen fertility rate (%) [2, 8]: 64.43%
OC[C@@H](O)[C@@H](O)[C@H](O)[C@H](O)CO [Mannitol, mannitol] | 9.68% | 9.81% | 77.89% | 75.94% | 81.64 | 82.95 | 80.98 | 79.59 | 
O=C1O[C@H]([C@@H](O)CO)C(O)=C1O [Ascorbic acid, ascorbic acid] | 10.05% | 9.76% | 81.26% | 79.58% |  |  |  |  | k1 (K1/4, mean 2n pollen fertility rate at level 1) [2]: 80.47; k2 (K2/4, mean 2n pollen fertility rate at level 2) ([2]; mannitol 0.5 g/L, brassinolide 4.0 mg/L): 83.42; k3 (K3/4, mean 2n pollen fertility rate at level 3) ([2]; ascorbic acid 1.5 mg/L): 81.04; k4 (K4/4, mean 2n pollen fertility rate at level 4) [2]: 80.24
CC(C)[C@H](C)[C@@H](O)[C@H](O)[C@@H](C)[C@H]1CC[C@H]2[C@@H]3COC(=O)[C@H]4C[C@H](O)[C@H](O)C[C@]4(C)[C@H]3CC[C@]12C [Brassinolide, brassinolide] | 11.03% | 10.83% | 84.13% | 82.58% | 79.88 | 82.98 | 81.95 | 80.36 | 
OC[C@H]1O[C@@](CO)(O[C@H]2O[C@H](CO)[C@@H](O)[C@H](O)[C@H]2O)[C@@H](O)[C@@H]1O [Sucrose, sucrose] |  |  |  |  | 80.87 | 80.95 | 82.91 | 80.44 | 
